Measurements taken from patent US20240325330A1, “NEW METHOD TO TREAT ACIDOSIS RELATED DISEASES WITH ACETOACETATE” (INSTITUT NATIONAL DE LA SANTÉ ET DE LA RECHERCHE MÉDICALE, priority 2021, published 2024).

Tests used:
[1] = test system: PBMC from septic shock patients; experiment: Intracellular ATP in PBMC from septic shock patients; format: cell-based, human; conditions: 5 mM AcAc, normalized on 0.5 g/L glucose, FIG. 1B
Method: The intracellular levels of ATP in whole-cell lysates were determined with enzymatic assays (Abcam, Cambridge, UK), according to the manufacturer's instructions. ATP was quantified in (i) macrophages generated in the absence (Mφ) or presence of lactic acid (LA-Mφ) or of lactic acid and acetoacetate (LA-Mφ+AcAc), (ii) macrophages with or without depolarized mitochondria (“Depol” and “Pol” populations, respectively) isolated from day 3 LA-Mφ by flow cytometry using MitoTracker Green and MitoTracker Deep Red probes (purity>99%) and, (iii) PBMC isolated from septic shock patients (n=3) were cultured for 24 h in a medium containing 0.5 g/L glucose, supplemented with 5 mM of acetoacetate (AcAc) or with 2 g/L of glucose (Glc). Results are normalized on the condition 0.5 g/L glucose (None).
Peripheral blood mononuclear cells (PBMC) from septic patients and healthy subjects were purified by standard density-gradient centrifugation on lymphocyte separation medium (Eurobio, Courtaboeuf, France). […] After 24 h culture, the percentage of cells with depolarized mitochondria was assessed as described above. After 3 days of culture, intracellular ATP has been quantified as described above.

[2] = test system: human monocytes differentiated into macrophages under lactic acidosis (LA-Mφ); experiment: Metabolite quantification in culture supernatants and acetyl-CoA in lysates; format: cell-based
Method: (§1) Peripheral blood mononuclear cells (PBMC) were obtained from healthy human volunteers (Blood collection center, Angers, France; agreement ANG-2017-01) by standard density-gradient centrifugation on lymphocyte separation medium (Eurobio, Courtaboeuf, France). CD14+ monocytes were then isolated by positive magnetic cell-sorting (Miltenyi Biotec, Bergisch Gladbach, Germany). Monocytes (1×10^6 cells/mL) were cultured in complete medium (CM) consisting of RPMI 1640 (Lonza, Verviers, Belgium) supplemented with 10% fetal calf serum (FCS) (Eurobio), 2 mM L-glutamine, 1 mM sodium pyruvate, 0.1 mM non-essential amino acids, 10 mM HEPES, 100 U/mL penicillin and 100 μg/mL streptomycin (all from Lonza) in the presence of 50 ng/mL GM-CSF (R&D Systems, Minneapolis, MN).
Experiments were performed in the presence of 10 mM lactic acid (Sigma-Aldrich, St Louis, MO) resulting in a pHe of 6.5 to generate LA-Mφ (lactic acidosis conditioning), 12.35 mM HCl to reach a final pHe of 6.5 and to generate HCl-Mφ(acidosis conditioning), 10 mM sodium lactate (Sigma-Aldrich) to generate lactate-Mφ (lactosis conditioning, pH 7.3), in the absence or presence of 5 mM lithium acetoacetate (AcAc) (Sigma-Aldrich, St Louis, MO).
The levels of glucose, glutamine, free L-amino acids and lactate in cell culture supernatants, and of acetyl-CoA in whole-cell lysates were determined, together with the intracellular ADP/ATP ratio, with enzymatic assays (Abcam), according to the manufacturer's instructions. […] Acetoacetate concentrations were quantified with β-hydroxybutyrate dehydrogenase (3-HBDH) (Roche Applied Science), an enzyme that catalyzes the reversible reduction of acetoacetate to β-hydroxybutyrate in the presence of excess NADH, with the concomitant oxidation of NADH. The progress of the reaction was monitored by measuring the decrease in 340 nm absorbance due to the conversion of NADH into NAD. AcAc consumption was determined by subtracting the concentration of AcAc in cell culture supernatants from that in cell-free culture supernatants.

[3] = test system: human monocytes differentiated into macrophages under lactic acidosis (LA-Mφ); experiment: Mitochondrial membrane potential (MitoTracker Green / Deep Red flow cytometry) in macrophages under lactic acidosis; format: cell-based; conditions: 5 mM AcAc, 10 mM lactic acid (pHe 6.5), LA-Mφ+AcAc vs LA alone; data not shown
Method: as §1, with “MN). […]” for “MN).”
Mitochondrial membrane potential was assessed by incubating with 10 nM MitoTracker Green and 5 nM MitoTracker DeepRed (Thermo Fisher Scientific, Waltham, MA) in PBS containing 1% (w/v) BSA in PBS (PBS/BSA) at 37° C. for 15 min. […] Flow cytometry data were acquired with a FACSCanto II flow cytometer (BD Biosciences, San Jose, CA) and analyzed with FlowJo software (Tree Star, Ashland, OR).

[4] = test system: human monocytes differentiated into macrophages under lactic acidosis (LA-Mφ); experiment: Mitochondrial mass (mtDNA copy number) and NRF2 mRNA expression; format: cell-based; conditions: data not shown
Text: (§2) Peripheral blood mononuclear cells (PBMC) were obtained from healthy human volunteers (Blood collection center, Angers, France; agreement ANG-2017-01) by standard density-gradient centrifugation on lymphocyte separation medium (Eurobio, Courtaboeuf, France). CD14+ monocytes were then isolated by positive magnetic cell-sorting (Miltenyi Biotec, Bergisch Gladbach, Germany). […]
Cells were lysed in Trizol reagent (Life Technologies, Thermo Fisher Scientific), and total RNA was extracted with the RNeasy Micro kit (Qiagen, Hilden, Germany) and then reverse-transcribed with the Superscript II reverse transcriptase (Life Technologies). Levels of mRNA encoding the indicated proteins were then analyzed by subjecting the cDNA obtained by reverse transcription to qPCR. Relative quantification was performed by the 2^−ΔΔCT method, with RPS18, EF1A, TBP, RPL13A and PPIA as references. Results are expressed as relative mRNA levels.
Mitochondrial DNA (mtDNA) content was determined by qPCR with primers specific for the ND4 and COX1 genes, and was weighted according to nuclear DNA levels, which were quantified by analyzing […], as previously described (23).

[5] = test system: human monocytes exposed to lactic acid; experiment: Intracellular pH (SNARF probe, flow cytometry); format: cell-based; conditions: 10 mM lactic acid with 5 mM AcAc; FIG. 2E
Method: as §2
Intracellular pH (pHi) was measured by incubating 3×10^5 Mφ with 500 nM pH-sensitive dye carboxy-SNARF-AM (Life Technologies, Carlsbad, CA) in PBS/BSA at 37° C. for 20 min and then performing flow cytometry analysis. We determined pHi as the ratio of fluorescence intensities at two emission wavelengths (585/42 nm and 700/60 nm PMTs). SNARF fluorescence in macrophages was calibrated with a high-potassium buffer (39.6 mM NaCl, 120 mM KCl, 2.3 mM CaCl2), 1 mM MgCl2, 5 mM HEPES, 10 mM glucose) at pH values of 6.5 to 8, in the presence of 10 μM nigericin (Sigma-Aldrich); nigericin exchanges external potassium with internal protons to equilibrate extracellular and intracellular pH.

Compound: CC(=O)CC(=O)[O-].[Li+] [AcAc, lithium acetoacetate]
- levels of intracellular ATP [1]: increased
- uptake of glucose and amino acids and production of lactate ([2]; LA-Mφ in the presence of 5 mM AcAc, FIG. 2A-D): retain a partial capacity to take up glucose and amino acids and to produce lactate
- AcAc consumption by cells ([2]; LA-Mφ+AcAc culture supernatants, days 1 and 3, FIG. 2F): consume AcAc
- intracellular AcCoA levels ([2]; reduction induced by LA, in the presence of 5 mM AcAc): prevented the reduction of intracellular AcCoA levels
- mitochondrial depolarization [3]: did not exhibit the mitochondrial depolarization
- mitochondrial mass ([4]; LA-Mφ+AcAc (5 mM AcAc, 10 mM lactic acid)): no reduction of the mitochondrial mass
- expression of NRF2 ([4]; LA-Mφ+AcAc relative to LA-Mφ): tend to increase
- immediate short-term decrease in pHi induced by extracellular acidosis [5]: remained detectable
